Test results from US7671050B2, “Triazolophthalazines” (NYCOMED GmbH, priority 2005, dated 2010).

Tests used:
[1] = tested on: HUVEC monolayers; test: Inhibition of thrombin-stimulated macromolecule (HRP) permeability of HUVEC monolayers; format: cell-based, human; settings: Homo sapiens, 1 h; HUVEC on Transwells, 1 μM RP73401, 10 μM Motapizone, 1 mM SNP or 100 nM ANP, 1 U/ml thrombin, HRP passage after 60 min; read-out: Inhibition of SNP- or ANP-induced permeability, -log IC50 (converted)
Procedure: The procedure to measure macromolecule permeability of endothelial cell monolayers followed the method described by Langeler & van Hinsbergh (1988) with modifications. Human umbilical vein endothelial cells were isolated from umbilical cords according to standard procedures (Jaffe et al. 1973) and cultured in endothelial cell basal medium (EBM) supplemented with 2% FCS, 0.5 ng/ml VEGF, 10 ng/ml bFGF, 5 ng/ml EGF, 20 ng/ml Long R3 IGF-1, 0.2 μg/ml hydrocortisone, 1 μg/ml ascorbic acid, 22.5 μg/ml heparin, 50 μg/ml gentamicin, 50 ng/ml amphotericin B (EGM2 purchased from Promocell GmbH, Heidelberg, Germany). At confluency, cells were trypsinized and replated at 73000 cells per well on 3 μm polycarbonate filter Transwell inserts (Costar GmbH, Bodenheim, Germany) precoated with 10 μg cm^2−1 Fibronectin (Sigma, Taufkirchen, Germany). HUVECs were cultured in EGM2 (100 μl in the upper wells and 600 μl in the lower wells) over four days prior the experiments and medium was changed every other day. At the day of the experiment culture medium was replaced by M199 with 1% human serum albumin. Endothelial cells were preincubated with cyclic nucleotide modifiers (the selective PDE3 inhibitor motapizone, the selective PDE4 inhibitor RP73401, the cGMP generators ANP or SNP and PDE2 inhibitors) for 15 min. HUVECs were then stimulated with Thrombin (1 U ml^−1) (Sigma, Taufkichen, Germany) and horsh radish peroxidase (5 μg/ml) (Sigma, Taufkirchen, Germany) as the macromolecule marker protein was added to the upper wells. Following 1 h incubation time Transwells were removed and the activity of horsh radish peroxidase that penetrated the endothelial cell monolayer was measured in the lower wells with the 3,3′,5,5′-tetramethylbenzidine liquid substrate system from Sigma (Taufkirchen, Germany).
In parallel, compounds according to the invention can inhibit Thrombin-induced permeability of HUVEC monolayers for horsh radish peroxidase (HRP) as a macromolecule marker. […] The concentration-dependent inhibition of HRP permeability at different concentrations was assessed from the percent inhibition in the presence and absence of the PDE2 inhibitors and in the presence of 1 μM RP73401, 10 μM Motapizone and 100 nM ANP.
HUVEC cells on 3 μm polycarbonate filters (Transwells) were preincubated with 1 μM RP73401 (to block PDE4) and 10 μM Motapizone (to block PDE3), 1 mM SNP or 100 nM ANP and test sample over 15 min and then stimulated with 1 U/ml thrombin. HRP passage into the lower wells was assessed after 60 min.

Row | melting point | Compound | IC50 [1]
1 | 242.5 °C | CCOc1ccc(Nc2nn3c(-c4ccc(OC)cc4)nnc3c3ccccc23)cc1OCC [Example 29, (3,4-Diethoxyphenyl)-[3-(4-methoxyphenyl)-[1,2,4]triazolo[3,4-a]phthalazin-6-yl]-amine] | 0.00794 to 0.316 µM
2 | 294 °C | COc1ccc(-c2nnc3c4ccccc4c(Nc4ccc(OC(F)F)cc4)nn23)cc1 [Example 30, [4-(1,1-Difluoromethoxy)-phenyl]-[3-(4-methoxyphenyl)-[1,2,4]triazolo[3,4-a]phthalazin-6-yl]-amine] | 0.00794 to 0.316 µM
